Data published in PubChem BioAssay (NCI).
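Exposure lasted 48 hours, with cells grown in 96-well plates and compounds tested at five concentrations. GI50 marks 50% less growth. TGI is the concentration that stops growth completely.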

Key:
Experiment in all cases: NCI tumour cell line growth inhibition, 48 h
NCI-H226 lung = test system: NCI-H226 lung
NCI-H460 lung = test system: NCI-H460 lung
NCI-H522 lung = test system: NCI-H522 lung
NCI/ADR-RES ovarian = test system: NCI/ADR-RES ovarian
OVCAR-8 ovarian = test system: OVCAR-8 ovarian
RXF 393 renal = test system: RXF 393 renal
SF-268 CNS = test system: SF-268 CNS
SK-OV-3 ovarian = test system: SK-OV-3 ovarian
UACC-257 melanoma = test system: UACC-257 melanoma
UO-31 renal = test system: UO-31 renal

Structure (SMILES) | GI50 (NCI-H226 lung) [µM] | TGI (NCI-H226 lung) [µM] | GI50 (NCI-H460 lung) [µM] | TGI (NCI-H460 lung) [µM] | GI50 (NCI-H522 lung) [µM] | TGI (NCI-H522 lung) [µM] | GI50 (NCI/ADR-RES ovarian) [µM] | TGI (NCI/ADR-RES ovarian) [µM] | GI50 (OVCAR-8 ovarian) [µM] | TGI (OVCAR-8 ovarian) [µM] | GI50 (RXF 393 renal) [µM] | TGI (RXF 393 renal) [µM] | GI50 (SF-268 CNS) [µM] | TGI (SF-268 CNS) [µM] | GI50 (SK-OV-3 ovarian) [µM] | TGI (SK-OV-3 ovarian) [µM] | GI50 (UACC-257 melanoma) [µM] | TGI (UACC-257 melanoma) [µM] | GI50 (UO-31 renal) [µM] | TGI (UO-31 renal) [µM]
O=c1cccc(C#CC#C[C@H]2O[C@@H]2CO)o1 | 0.309 | 1.11 | 1.08 | 6.74 | 3.56 | > 100 | 0.927 | 3.37 | 0.341 | 1.43 | 0.448 | 1.74 | 2.49 | 7.51 | 2.66 | 7.18 | 1.16 | 2.91 | 2.59 | 6.29
Nc1ccccc1C#C/C=C\C#Cc1ccccc1C(F)(F)F | 0.233 | 19.3 | 1.53 | > 40 | 2.07 | 34.3 | 0.302 | 2.89 | 1.32 | 20.6 | 1.1 | 9.98 | 1.67 | 20.4 | 0.888 | 24.7 | 0.536 | 23.7 | 4.08 | 23.4
CC1=C([Se]CC(OC(=O)CC[Se]c2ccccc2)C(=O)NCCCCCC(=O)OCc2ccccc2)C(=O)c2ccccc2C1=O (stereo not given) | 2.75 | 7.07 | 1.78 | 5.34 | 2.28 | 6.16 | 2.36 | 6.5 | 2.44 | 7.16 | 1.91 | 5.64 | 2.5 | 6.31 | 3.95 | 7.27 | 2.78 | 7.9 | 2.07 | 7.41
OCc1cn(Cc2cccc(Cl)c2)c2ccccc12 | 0.0313 | 0.222 | 0.0346 | 17.9 | 5.95 | 22.7 | 13.7 | 62 | 10.9 | 66.9 | 2.43 | 18 | 14 | 38.1 | 4.42 | 47.4 | 0.823 | 5.61 | 5.01 | 41.4
OC1(C(O)(c2ccc(-c3ccccc3)cc2)c2ccc(-c3ccccc3)cc2)CCCCC1 |  | > 100 |  | > 100 |  | > 100 |  | > 100 |  | > 100 |  | > 100 |  | > 100 |  | > 100 |  | > 100 |  | > 100
CC(C)(C)N1CCC1C(N)=O (stereo not given) | > 100 | > 100 | > 100 | > 100 | > 100 | > 100 | > 100 | > 100 | > 100 | > 100 | > 100 | > 100 | > 100 | > 100 | > 100 | > 100 | > 100 | > 100 | > 100 | > 100
CC(=O)OC[C@H]1O[C@@H](n2ccc(=O)[nH]c2=O)[C@H](OC(C)=O)[C@@H]1OC(C)=O | > 100 | > 100 | > 100 | > 100 | > 100 | > 100 | > 100 | > 100 | > 100 | > 100 | > 100 | > 100 | > 100 | > 100 | > 100 | > 100 | > 100 | > 100 | > 100 | > 100
CC1=C(/C=C/C(C)=C\C=C\C(C)=C\C(=O)Nc2ccc3c(c2)OCO3)C(C)(C)CCC1 | > 100 | > 100 | 50.5 | > 100 | 14.1 | > 100 | 73 | > 100 | 93.1 | > 100 | 24 | > 100 | > 100 | > 100 | > 100 | > 100 | 29.4 | > 100 | > 100 | > 100
C/C(=N/S(=O)(=O)c1ccc(Cl)c(Cl)c1)OCC(C)(C)C |  | > 100 |  | > 100 |  | > 100 |  | > 100 |  | > 100 |  | > 100 |  | > 100 |  | > 100 |  | > 100 |  | > 100
COc1ccc(/C=C/C(=O)c2cc3c(N)c(C(=O)Nc4ccccc4Cl)sc3nc2C)cc1 | 2.43 | 17.4 | 2.2 | > 50 | 0.365 | > 50 | 1.62 | 16 | 2.04 | 11 | 0.846 | 3.6 | 3.39 | 27.9 | 3.58 | 19 | 1.19 | 13.5 | 1.17 | 3.94
CN(C)CCCn1c2c(c3cnccc3c1=O)C(=O)c1ccccc1-2 | 0.388 | 2.85 | 0.39 | 1.75 | 0.312 | 7.24 | 0.483 | 10.8 | 0.313 | 44.1 | 0.396 | 2.05 | 0.62 | 7.24 | 1.96 | 28.7 | 0.486 | 3.21 | 0.183 | 2.55
